From US10894051B2, “Method of treating metastatic cancer in a subject” (City University of Hong Kong, priority 2017, dated 2021)

What was measured:
cancer cells = assay: cytotoxicity in vitro; assay type: cell-based
[1] = system: Fluc-mCherry-expressing 4TO7 cells; assay: metastasis of fat pad injected Fluc-mCherry 4TO7 cells; assay type: in vivo; conditions: fat pad injection; 2.5 mg/kg IP; 4 weeks; normal female mice
Protocol: The anti-metastasis effects of vacuolin-1 in another metastasis model have also been evaluated. With reference to FIG. 7A, Fluc-mCherry-expressing 4TO7 cells were injected into the fat pad of normal female mice followed by IP injections of vacuolin-1 (2.5 mg/kg) 24 hour later. The mice were imaged by the Cri Maestro 2 weekly to assess the tumor progression. Mice were sacrificed after 4 weeks, and the number of tumor colonies in lung was counted.

LCSCs = assay: xenograft tumor-seeding of vacuolin-1 pretreated LCSCs; assay type: in vivo, nude mice; conditions: for tumor incidence / tumor volume: pretreated 10 μM 48 hours, after 4 weeks
Protocol: Nude mice were divided into 4 control groups and 4 treatment groups, each group having 6 nude mice. With reference to FIG. 2A, LCSCs were pretreated with DMSO or 10 μM vacuolin-1 for 48 hours before injecting to nude mice via subcutaneous injection. After 4 weeks, the tumor incidence in mice was measured to determine whether the pretreatment of vacuolin-1 can inhibit the invasion cancer cells in mice.

HeLa cells = assay: trans-well migration assay; assay type: cell-based; conditions: 2 μM, 5 μM and 10 μM
Protocol: (§1) HeLa cells, A549 cells, CNE-1 cells and human liver cancer stem cells (hLCSCs) were incubated and treated with vacuolin-1 at different concentrations, namely 2 μM, 5 μM and 10 μM.

A549 cells = assay: trans-well migration assay; assay type: cell-based; conditions: 2 μM, 5 μM and 10 μM
Protocol: as §1

[2] = system: human liver cancer stem cells (hLCSCs); assay: trans-well migration assay; assay type: cell-based; conditions: 2 μM, 5 μM and 10 μM
Protocol: as §1

CNE-1 cells = assay: trans-well migration assay; assay type: cell-based; conditions: 2 μM, 5 μM and 10 μM
Protocol: as §1

cancer cell = assay: colony formation from single cancer cell; assay type: cell-based; conditions: 2 μM, 5 μM and 10 μM
Protocol: as §1

[3] = system: human breast cancer cells CA1a; assay: metastasis of tail vein injected CA1a cells; assay type: in vivo; conditions: 2.5 mg/kg IP 3 times per week; 8 weeks; nude mice
Protocol: Similarly, the anti-metastasis effects of vacuolin-1 in human breast cancer cells CA1a in xenograft mouse models were evaluated. With reference to FIG. 4A, briefly, 5×10^5 Fluc-mCherry-expressing CA1a cells were injected by tail vein into nude mice. 24 hours after the tail vein injection, IP injections of vacuolin-1 (2.5 mg/kg) and DMSO-containing PBS were conducted 3 times per week. The mice where imaged by the Cri Maestro 2 weekly to assess the tumor progression. After 8 weeks, all mice were sacrificed.

[4] = acute toxicity via oral route; assay type: in vivo; conditions: single dose 250 mg/kg oral
Protocol: In particular, vacuolin-1 was administered at a single dose of 250 mg/kg to young adult male and female mice via oral route, and DMSO-containing PBS was administered to another set of male and female mice via oral route as a control group. […] During the 2 weeks, the body weight was also measured. After the 2 weeks, organs were excised for histopathology evaluation.
Referring to FIG. 8B, all tissues or organs in vacuolin-1 treated mice were normal in histological point of view as compared to control groups.

focal adhesion (FA) = assay: FA disassembly after nocodazole release (Vinculin staining); assay type: cell-based
Protocol: (§2) Autophagy or endosomal trafficking contributes to the migration and invasion of tumor cells by changing the microtubule dynamics, or presentation of surface proteins, or secretion of extracellular matrix (ECM) proteins. Also, focal adhesion (FA) dynamics is a key process for cell migration. In this regard, the effects of vacuolin-1 on the spatio-temporal regulation of FA dynamics were assessed. Phospho-Y397 FAK immunoblot was used to assess the effects of vacuolin-1 on phosphorylation and dephosphorylation dynamics of FAK. Cells were also treated with nocodazole, followed by nocodazole removal and vacuolin-1 incubation, stained with antibodies against Vinculin and Phalloidiin for FA and stress fiber, respectively.
With reference to FIGS. 1E and 1F, cells were treated with nocodazole so as to depolymerize microtubules for inducing and stabilizing FA formation, showing by the puncta staining pattern of Vinculin (green colour), whereas removal of nocodazole led to microtubule regrowth resulting in decreasing the number of FA in a time-dependent manner until the reformation of FAs. […] Focal adhesion kinase (FAK) phosphorylation and dephosphorylation on Y397 is another readout of FA dynamics.

tfLC3B-expressing LCSCs = assay: metastasis of tail vein injected LCSCs; assay type: in vivo; conditions: 2.5 mg/kg IP 3 times per week; 8 weeks; nude mice
Protocol: With reference to FIG. 3A, briefly, 5×10^5 tfLC3B-expressing LCSCs were injected via tail vein into nude mice. 24 hours after the tail vein injection, intraperitoneal (IP) injection of vacuolin-1 (2.5 mg/kg) were conducted 3 times per week. After 8 weeks, all mice were sacrificed. Lungs were excised, and fixed in the 4% paraformaldehyde in PBS. Metastatic nodules were counted in the excised lungs and hemotoxylin/eosin (H&E) were then performed.

[5] = system: Focal adhesion kinase (FAK); assay: phospho-Y397 FAK immunoblot; assay type: cell-based; conditions: phosphor-Y397 FAK immunoblot
Protocol: as §2
Consistently, with reference to FIG. 1D, vacuolin-1 treatment of cells abolished phosphorylation and dephosphorylation dynamics of FAK as assessed by the phosphor-Y397 FAK immunoblot analysis.

sub-chronic toxicity = assay type: in vivo; conditions: 5 mg/kg daily intraperitoneal; 3 months; mice
Protocol: As for the sub-chronic toxicity of vacuolin-1, 5 mg/kg vacuolin-1 was administered daily to young adult male and female mice via intraperitoneal route for 3 months, and DMSO-containing PBS was administered to another set of male and female mice as a control group. The body weight of the mice was determined every week. […] After the 3 months, organs were excised for histopathology evaluation.

hLCSCs [6] = assay: tumor sphere formation; assay type: cell-based, human
[7] = system: mouse breast carcinoma 4TO7; assay: metastasis of tail vein injected 4TO7 cells; assay type: in vivo, normal BALBc mice; conditions: 2.5 mg/kg daily IP; BALBc mice
Protocol: To exclude the effects of immunodeficiency (nude mice) on the drug effects, another metastasis tumor model was established by tail vein injection of mouse breast carcinoma 4TO7 into normal BALBc mice followed by daily IP injections of vacuolin-1 (2.5 mg/kg) 24 hour later, as illustrated in FIG. 5A.

[8] = system: Fluc-mCherry-expressing 4TO7 cells; assay: metastasis of tail vein injected Fluc-mCherry 4TO7 cells; assay type: in vivo; conditions: tail vein injection; 2.5 mg/kg IP; 2 weeks; normal mice
Protocol: Since 4TO7 cells are more metastatic than LCSCs, Fluc-mCherry-expressing 4TO7 cells were injected into normal mice via tail vein injection followed by IP injections of vacuolin-1 (2.5 mg/kg) 24 hour later, as illustrated in FIG. 6A. The mice were imaged by the Cri Maestro 2 weekly to assess the tumor progression. Mice were sacrificed after 2 weeks, and the number of tumor colonies in lung was counted.

hLCSCs [9] = assay: matrigel invasion assay; assay type: cell-based, human
Protocol: as §1

[10] = 1*10^4 LCSCs injected subcutaneously
[11] = 1*10^5 LCSCs injected subcutaneously
[12] = 1*10^6 LCSCs injected subcutaneously

Structure (SMILES): Ic1cccc(/C=N/Nc2nc(N3CCOCC3)nc(N(c3ccccc3)c3ccccc3)n2)c1 [vacuolin-1]
- cytotoxicity (cancer cells): no cytotoxicity
- metastasis of 4TO7 cells [1]: markedly inhibited
- tumor incidence (LCSCs; 1*10^3 LCSCs injected subcutaneously): 0/6
- tumor incidence (LCSCs; [10]): 2/6
- tumor volume (LCSCs; [10]): (1069 mm^3)
- tumor incidence (LCSCs; [11]): 2/6
- tumor volume (LCSCs; [11]): (1184 mm^3)
- tumor incidence (LCSCs; [12]): 5/6
- tumor volume (LCSCs; [12]): (1521 mm^3)
- tumor-seeding ability of LCSC cells (LCSCs; vacuolin-1 pretreatment, nude mice): markedly inhibited
- cell migration (HeLa cells): significantly inhibited
- cell migration (A549 cells): significantly inhibited
- cell migration [2]: significantly inhibited
- cell migration (CNE-1 cells): significantly inhibited
- size and number of colonies generated from single cancer cell (cancer cell): dramatically reduced
- metastasis of CA1a cells [3]: significantly inhibited
- behavior abnormality ([4]; 2 weeks): no signs of behavior abnormality
- mouse weight gain ([4]; 2 weeks): no effects
- histology of tissues or organs ([4]; after 2 weeks): normal
- acute toxicity ([4]; mice): no acute toxicity
- FA disassembly (focal adhesion (FA)): markedly inhibited
- metastasis of LCSCs (tumor nodules in lung, lung histology) (tfLC3B-expressing LCSCs): significantly inhibited
- phosphorylation and dephosphorylation dynamics of FAK [5]: abolished
- sub-chronic toxicity (sub-chronic toxicity): no sub-chronic toxicity
- tumor sphere formation (hLCSCs [6]): significantly inhibited
- anti-metastatic effects on 4TO7 cells (tumor nodules in lungs, lung histology) [7]: striking anti-metastatic effects
- metastasis of 4TO7 cells [8]: markedly inhibited
- cell invasion (hLCSCs [9]): significantly inhibited
